The Kd is the free concentration of one partner at which half of the binding sites on the other are occupied at equilibrium, for simple one-to-one binding.

Each structure is given as a SMILES string.

The results in this text go back to publication PMC9668100, “Isovitexin Protects Mice from Methicillin-Resistant Staphylococcus aureus-Induced Pneumonia by Targeting Sortase A” (Journal of Microbiology and Biotechnology, 2022).

The experiment addresses Sortase A (SrtA) (Staphylococcus aureus, UniProt Q2FV99). The experiment is described as follows: intrinsic fluorescence quenching with purified recombinant SrtA (KA); also FRET inhibition of purified SrtA, IC50 =[…], reversible. Type of experiment: binding.

Sequence of Sortase A (SrtA) (Q2FV99 whole entry): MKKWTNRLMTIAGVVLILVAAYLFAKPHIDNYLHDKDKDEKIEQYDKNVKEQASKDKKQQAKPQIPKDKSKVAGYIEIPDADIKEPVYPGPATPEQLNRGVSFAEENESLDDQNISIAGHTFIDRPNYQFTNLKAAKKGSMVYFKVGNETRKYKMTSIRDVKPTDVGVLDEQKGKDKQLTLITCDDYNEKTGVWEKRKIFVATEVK

`O=c1cc(-c2ccc(O)cc2)oc2cc(O)c([C@@H]3O[C@H](CO)[C@@H](O)[C@H](O)[C@H]3O)c(O)c12` [isovitexin]: the Kd is 14 µM.
